One data set deals with T1, human mGlu2 (Homo sapiens, UniProt Q14416).
T1 construct: expressed in transfected cells
The experiment in a line: Human mGlu2 GIRK thallium flux assay. The data set is classed as cell-based. The following applies: HEK293 cells, EC80 glutamate, triplicate assays (14g duplicate). The method, then:
(§1) Cell Line Generation and Thallium Flux Assays. The general procedure for the preparation of human mGlu2 and mGlu3 was described previously, [56] with minor modifications in this work. The cloning sites were NheI/NotI for both receptors. HEK GIRK cells, generously provided by Lily Jan (University of California San Francisco, San Francisco, CA), were transfected with 24 μg of DNA using Fugene6 (Promega), stable transfectants were selected with 1 μg/mL puromycin dihydrochloride (Sigma-Aldrich, St. Louis, MO), and polyclonal human mGlu2 GIRK and mGlu3 GIRK cell lines were established. Cells were maintained following selection in 45% DMEM, 45% Ham's F12, 10% FBS, 100 units/mL penicillin/streptomycin, 20 mM HEPES, pH 7.3, 1 mM sodium pyruvate, 2 mM glutamine, 700 μg/mL G418 (Mediatech, Inc., Herndon, VA), and […] puromycin (growth media) at 37 °C in the presence of 5% CO2. All cell culture reagents were purchased from Invitrogen Corp. (Carlsbad, CA) unless otherwise noted.
(§2) Human mGlu2 and mGlu3 Thallium Flux in Vitro Assays. Potencies of these NAMs at both mGlu2 and mGlu3 were investigated by thallium flux through GIRK channels, which was disclosed in detail as well as described in our previous work. In particular, cells were plated into 384-well, black-walled, clear-bottomed poly(D-lysine_-coated plates at a density of 15 000 cells per well in 20 μL of DMEM containing 10% dialyzed FBS, 20 mM HEPES, and 100 units/mL penicillin/streptomycin (assay media). Plated cells were incubated overnight at 37 °C in the presence of 5% CO2. The next day, the medium was exchanged from the cells to assay buffer [Hanks' balanced salt solution (Invitrogen) containing 20 mM HEPES, pH 7.3] using an ELX405 microplate washer (BioTek), leaving 20 μL per well, followed by the addition of 20 μL per well of FluoZin2-AM (330 nM final concentration) indicator dye (Invitrogen; prepared as a stock in DMSO and mixed in a 1:1 ratio with Pluronic acid F-127) in assay buffer. Cells were incubated for 1 h at room temperature, and the dye was exchanged to assay buffer using an ELX405, leaving 20 μL per well. For concentration-response curve experiments, compounds were serially diluted 1:3 into 10 point concentration-response curves and were transferred to daughter plates using an Echo acoustic plate reformatter (Labcyte, Sunnyvale, CA). Test compounds were diluted to 2 times their final desired concentration in assay buffer (0.3% DMSO final concentration). Agonists were diluted in thallium buffer [125 mM sodium bicarbonate (added fresh the morning of the experiment), 1 mM magnesium sulfate, 1.8 mM calcium sulfate, 5 mM glucose, 12 mM thallium sulfate, and 10 mM HEPES, pH 7.3] at 5 times the final concentration to be assayed. Cell plates and compound plates were loaded onto a kinetic imaging plate reader (FDSS 6000 or 7000; Hamamatsu Corporation, Bridgewater, NJ). Appropriate baseline readings were taken (10 images at 1 Hz; excitation, 470 ± 20 nm; emission, 540 ± 30 nm), and test compounds were added in a 20 μL volume and incubated for approximately 1 h at room temperature before the addition of 10 μL of thallium buffer with or without an EC80 concentration of the agonist glutamate for affinity evaluation experiments or with a full concentration-response of glutamate for Schild analysis experiments. After the addition of agonist, data were collected for approximately an additional 2.5 min. Data were analyzed using Excel (Microsoft Corp, Redmond, WA). The slope of the fluorescence increase beginning 5 s after thallium/agonist addition and ending 15 s after thallium/agonist addition was calculated, corrected to vehicle and maximal agonist control slope values, and plotted using either XLfit (ID Business Solutions Ltd.) or Prism software (GraphPad Software, San Diego, CA) to generate concentration-response curves. Potencies were calculated from fits using a four-point parameter logistic equation.

The target of another data set is T2, human mGlu3 (Homo sapiens, UniProt Q14832).
T2 construct: expressed in transfected cells
T2 sequence (Q14832 23-879): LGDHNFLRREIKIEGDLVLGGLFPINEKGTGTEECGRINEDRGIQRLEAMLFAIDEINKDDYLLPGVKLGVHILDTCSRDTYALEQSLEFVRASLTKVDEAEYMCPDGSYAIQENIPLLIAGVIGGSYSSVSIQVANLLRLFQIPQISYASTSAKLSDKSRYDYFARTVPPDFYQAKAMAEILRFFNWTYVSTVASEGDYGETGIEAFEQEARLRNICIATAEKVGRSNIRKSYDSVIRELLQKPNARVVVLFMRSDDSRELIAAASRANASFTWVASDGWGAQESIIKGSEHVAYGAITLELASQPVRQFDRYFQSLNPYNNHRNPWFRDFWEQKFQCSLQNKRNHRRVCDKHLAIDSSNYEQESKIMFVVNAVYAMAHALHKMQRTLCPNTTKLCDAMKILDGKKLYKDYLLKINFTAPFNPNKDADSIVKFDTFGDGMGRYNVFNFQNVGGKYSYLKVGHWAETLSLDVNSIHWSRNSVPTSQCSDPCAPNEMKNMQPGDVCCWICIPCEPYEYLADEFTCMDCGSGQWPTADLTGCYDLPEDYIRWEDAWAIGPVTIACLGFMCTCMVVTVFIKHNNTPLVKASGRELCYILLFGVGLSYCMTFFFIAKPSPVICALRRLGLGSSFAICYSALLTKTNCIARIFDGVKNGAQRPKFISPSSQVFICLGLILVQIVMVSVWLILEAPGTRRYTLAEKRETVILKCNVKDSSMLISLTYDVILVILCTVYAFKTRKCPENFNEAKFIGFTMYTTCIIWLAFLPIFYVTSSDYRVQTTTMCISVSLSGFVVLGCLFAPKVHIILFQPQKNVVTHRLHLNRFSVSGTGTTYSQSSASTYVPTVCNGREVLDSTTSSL
The experiment in a line: Human mGlu3 GIRK thallium flux assay. Type of data set: cell-based. The note with it: HEK293 cells, triplicate assays (14g duplicate). The method, then: as §1, §2

The target in data set [1] is T3, mGlu2 (Rattus norvegicus, UniProt P31421). In words: Dynamic PET imaging in rat brain. Type of data set: in vivo, SD rats. Also noted: from tissue; host or cells: brain of living SD rats. The method, then:
As we previously reported, PET scans were carried out by an Inveon PET scanner (Siemens Medical Solutions, Knoxville, TN, USA). During the scan, SD rats were anesthetized by oxygen mixed with 1-2% (v/v) isoflurane and kept body temperature at […] by a commercially available circulation system (T/Pump TP401, Gaymar Industries, Orchard Park, NY). A 24-gauge catheter was inserted into the tail vein to facilitate a bolus injection. The radiotracer [^11C]14a or [^11C]14b (ca. 1 mCi / 150-200 μL) was injected into the rat via the preinstalled catheter, and the dynamic acquisition of PET signals in rat brain was started at the same time and lasted for 60 min in 3D list mode. For pretreatment studies, 14a (1 mg/kg for [^11C]14a for self-blocking study in Figure S2; 3 mg/kg for [^11C]14b for blocking study in Figure S12C) or 14b (1 mg/kg for [^11C]14b for self-blocking study in Figure S12B), formulated in 300 μL of saline containing 10% ethanol and 5% Tween 80, was injected at 30 min via the tail vein catheter prior to the injection of [^11C]14a or [^11C]14b. The dynamic emission data were reconstructed by filtered back projection using Hanning's filter with a Nyquist cutoff of 0.5 cycle/pixel into 33 frames (10 s × twelve frames, 20 s × three frames, 30 s × three frames, 60 s × three frames, 150 s × three frames, and 300 s × nine frames). The TACs of [^11C]14a or [^11C]14b were analyzed from volumes of interest in the striatum, hippocampus, cortex, thalamus, pons and cerebellum normalized to a rat brain MRI template using PMOD software (version 3.4; PMOD technology, Zurich, Switzerland). The radioactivity was decay-corrected to the injection time and expressed as the standardized uptake value (SUV) which equals to (radioactivity per milliliter of tissue per injected radioactivity) × (gram of body weight). To obtain non-displaceable binding potential (BPND), simplified reference tissue model (SRTM), [54] was carried out on the basis of kinetic analysis using PMOD software. We acquired BP-parametric images using kinetic modeling without masking. Respective TACs in receptor-rich or -poor region were loaded for production of BP-map with default setting. Representative parametric images scaled with BPND were reconstructed by PMOD software using TACs in mGlu2-enriched and reference regions. Pons was selected as the reference region for mGlu2 (the lowest and consistent brain uptake and washout kinetics between baseline and blocking conditions). It should be noted that while there is a low-level expression of mGlu2 in the pons, it is not without existence. A reference region should be a region devoid of the target, but with similar tracer transport or diffusion to the other regions of interest with expression of the target. Therefore, there are some limitations when using pons as the reference region. For example, the partial volume effect in PET likely leads to spillover of activity from nearby higher uptake regions into the pons, artificially increasing the time-activity curve in the pons.

Data set [2] concerns the target T3, mGlu2. The experiment in a line: In vitro autoradiography in rat brain sections. The following applies: preincubated with unlabeled QCA, 14b or 14a at 10 µM. Also noted: from tissue; host or cells: Sprague-Dawley rat brain sections. The data set is classed as binding. How it is done:
Sagittal rat brain slices were prepared into 20 μm sections with a cryostat (HM560; Carl Zeiss, Oberkochen, Germany), mounted on air plasma spray-coated glass slides, and stored at -80 °C before used for experiments. The sections were preincubated for 15 min in a glass tank containing 200 mL of Tris·HCl buffer (50 mM, pH 7.4) consisting of 2 mM of MgCl2 and 1.2 mM of CaCl2 at room temperature. After preincubation, the sections were incubated in a fresh buffer containing [^11C]14a or [^11C]14b (250 µCi in 200 mL buffer; molar activity 2.7 Ci/µmol of [^11C]14a and 2.5 Ci/µmol of [^11C]14b, respectively) in the glass tank for 30 min at room temperature. For blocking studies, non-radioactive 14a or 14b (10 μM) and QCA (10 μM) were chosen to determine the specificity of radiotracers for binding mGlu2. Six serial brain sections were used for each conditions. After incubation, brain sections were washed with cold buffer (3 × 5 min), immersed in cold distilled water, and then dried with cold air. The sections were placed in contact with imaging plates (BAS-MS2025, FUJIFILM, Tokyo, Japan). Autoradiograms were obtained and photostimulated luminescence (PSL) values in the ROIs were measured using a Bio-Imaging Analyzer System (BAS5000, FUJIFILM).

For data set [3], the system named is mGlu2. The note with it: cited from earlier work.

Bounds are passed on as bounds.

T3 sequence (P31421 19-872): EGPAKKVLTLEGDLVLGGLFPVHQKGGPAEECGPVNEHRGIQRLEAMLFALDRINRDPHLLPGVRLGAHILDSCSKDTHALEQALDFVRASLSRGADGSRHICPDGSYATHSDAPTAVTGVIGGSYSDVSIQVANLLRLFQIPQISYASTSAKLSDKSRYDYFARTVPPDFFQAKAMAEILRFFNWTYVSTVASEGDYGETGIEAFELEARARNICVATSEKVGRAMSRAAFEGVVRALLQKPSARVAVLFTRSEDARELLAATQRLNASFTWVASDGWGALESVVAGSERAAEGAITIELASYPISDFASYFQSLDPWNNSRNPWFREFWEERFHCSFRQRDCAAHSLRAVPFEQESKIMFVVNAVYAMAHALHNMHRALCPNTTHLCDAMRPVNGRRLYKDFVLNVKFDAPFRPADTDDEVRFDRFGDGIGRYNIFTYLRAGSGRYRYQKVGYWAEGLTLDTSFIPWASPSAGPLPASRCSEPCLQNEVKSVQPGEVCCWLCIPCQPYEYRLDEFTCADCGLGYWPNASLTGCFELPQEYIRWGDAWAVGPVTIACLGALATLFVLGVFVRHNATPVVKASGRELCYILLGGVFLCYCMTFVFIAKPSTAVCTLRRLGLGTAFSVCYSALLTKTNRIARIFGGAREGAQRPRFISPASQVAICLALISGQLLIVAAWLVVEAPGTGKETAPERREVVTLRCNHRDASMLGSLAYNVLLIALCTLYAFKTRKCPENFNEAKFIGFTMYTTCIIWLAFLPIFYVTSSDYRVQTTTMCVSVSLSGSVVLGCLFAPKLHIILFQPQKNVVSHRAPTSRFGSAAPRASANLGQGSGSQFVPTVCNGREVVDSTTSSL
T1 sequence (Q14416 19-872): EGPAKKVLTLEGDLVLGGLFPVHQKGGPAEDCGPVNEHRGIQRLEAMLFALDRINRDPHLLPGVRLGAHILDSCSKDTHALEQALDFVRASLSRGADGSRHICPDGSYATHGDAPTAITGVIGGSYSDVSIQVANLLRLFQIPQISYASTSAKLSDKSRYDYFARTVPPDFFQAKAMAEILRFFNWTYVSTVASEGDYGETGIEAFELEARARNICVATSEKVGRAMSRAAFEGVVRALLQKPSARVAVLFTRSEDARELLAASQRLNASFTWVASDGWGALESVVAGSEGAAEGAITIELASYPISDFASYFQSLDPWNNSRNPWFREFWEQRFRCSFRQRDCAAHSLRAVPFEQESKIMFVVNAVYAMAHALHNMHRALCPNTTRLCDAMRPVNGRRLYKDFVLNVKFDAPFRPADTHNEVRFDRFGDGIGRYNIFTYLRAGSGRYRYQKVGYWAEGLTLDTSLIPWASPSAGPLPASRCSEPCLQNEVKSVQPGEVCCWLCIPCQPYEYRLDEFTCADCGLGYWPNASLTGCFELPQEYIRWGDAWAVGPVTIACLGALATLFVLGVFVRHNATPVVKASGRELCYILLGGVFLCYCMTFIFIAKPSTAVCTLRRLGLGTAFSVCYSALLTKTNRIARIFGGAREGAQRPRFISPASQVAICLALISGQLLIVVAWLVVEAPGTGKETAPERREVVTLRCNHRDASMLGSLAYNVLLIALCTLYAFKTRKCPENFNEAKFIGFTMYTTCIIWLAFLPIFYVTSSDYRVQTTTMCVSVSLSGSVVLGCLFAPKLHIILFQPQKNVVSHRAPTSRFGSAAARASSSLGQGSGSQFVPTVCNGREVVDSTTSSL

For the compound `COc1ccc(-c2cc(C(N)=O)nc3c2CCN(Cc2ccnc(OC)c2)C3)c(F)c1` [14a, 4-(2-fluoro-4-methoxyphenyl)-7-((2-methoxypyridin-4-yl)methyl)-5,6,7,8-tetrahydro-1,7-naphthyridine-2-carboxamide], the IC50 at human mGlu2 was 39 nM; at human mGlu3, more than 10 µM.
As to `COc1cc(CN2CCc3c(-c4ccc(C)cc4F)cc(C(N)=O)nc3C2)ccn1` [14c, 4-(2-fluoro-4-methyphenyl)-7-((2-methoxypyridin-4-yl)methyl)-5,6,7,8-tetrahydro-1,7-naphthyridine-2-carboxamide], the IC50 at human mGlu2 was 129 nM; against human mGlu3, more than 10 µM.
As to `COc1cc(CN2CCc3c(-c4ccc(F)cc4OC)cc(C(N)=O)nc3C2)ccn1` [14d, 4-(4-fluoro-2-methoxyphenyl)-7-((2-methoxypyridin-4-yl)methyl)-5,6,7,8-tetrahydro-1,7-naphthyridine-2-carboxamide], the 50% inhibitory concentration (IC50) was 39 nM against human mGlu2 and more than 10 µM on human mGlu3.
`COc1ncc(CN2CCc3c(-c4ccc(C)cc4F)cc(C(N)=O)nc3C2)cn1` [14e, 4-(2-fluoro-4-methyphenyl)-7-((2-methoxypyrimidin-5-yl)methyl)-5,6,7,8-tetrahydro-1,7-naphthyridine-2-carboxamide]: the 50% inhibitory concentration (IC50) at human mGlu2 is 106 nM; against human mGlu3, more than 10 µM.
As to `COc1ccc(-c2cc(C(N)=O)nc3c2CCN(Cc2cnc(OC)nc2)C3)c(F)c1` [14f, 4-(2-fluoro-4-methoxyphenyl)-7-((2-methoxypyrimidin-5-yl)methyl)-5,6,7,8-tetrahydro-1,7-naphthyridine-2-carboxamide], the half-maximal inhibitory concentration (IC50) against human mGlu2 was 318 nM; against human mGlu3, more than 10 µM.
Consider `COc1cc(CN2CCc3c(-c4ccc(F)cc4Cl)cc(C(N)=O)nc3C2)ccn1` [14g], for which the values for the concentration for half-maximal inhibition (IC50) against human mGlu2 and against human mGlu3 were 87 nM and more than 30 µM, respectively.
With `COc1cc(CN2CCc3c(-c4ccc(O[11CH3])cc4F)cc(C(N)=O)nc3C2)ccn1` [[^11C]14a, 4-(2-fluoro-4-(methoxy-^11C)phenyl)-7-((2-methoxy-pyridin-4-yl)methyl)-5,6,7,8-tetrahydro-1,7-naphthyridine-2-carboxamide], the “Peak uptake in the striatum” value on mGlu2 [1] (SD rats, at 2.5 min) is recorded as 1.7 SUV. In addition, the “Time of peak radioactivity in brain regions” value on mGlu2 [1] (SD rats, i.v.) was determined as 2.5 min. Further, the In vivo specificity entry at mGlu2 [1] (pretreatment with 14a (1 mg/kg)) is reported as “low-to-modest”. The “Decrease of region-to-pons ratios under blocking” value on mGlu2 [2] is 17-54%.
As for `[11CH3]Oc1ccc(C2CCN(c3ccn(CC4CC4)c(=O)c3C#N)CC2)cc1` [[^11C]CMDC, 1-(cyclopropylmethyl)-4-(4-[^11C]methoxyphenyl)-piperidin-1-yl-2-oxo-1,2-dihydropyridine-3-carbonitrile], the IC50 in the data set on mGlu2 [3] was 98 nM.
For the compound `[11CH3]Oc1cccc(CC[C@@](N)(C(=O)O)[C@H]2C[C@@H]2C(=O)O)c1` [[^11C]CMG], the IC50 with mGlu2 [3] is 94 nM.
As to `[11CH3]Oc1c(F)ccc(F)c1C1CCN(c2ccn3c(CC4CC4)nnc3c2Cl)CC1` [[^11C]JNJ42491293], the IC50 in the data set on mGlu2 [3] was 7.5 nM.

Usually IC50 stands for the concentration that gives 50% inhibition.

These data come from article PMC7532674, “Synthesis and preliminary studies of ^11C-labeled tetrahydro-1,7-naphthyridine-2-carboxamides for PET imaging of metabotropic glutamate receptor 2” (Theranostics, 2020).
